Source: patent publication US20250127933A1, “Method of verifying effectiveness and stability of linker in Drug Delivery system and Structure therefor” (INDUSTRY-ACADEMIC COOPERATION FOUNDATION OF SUNCHON …, priority 2023, published 2025)

Experiments:
HepG2 cells [1] = assay: Confocal live cell imaging in HepG2 cells; format: cell-based; settings: bestatin 500 μM pretreatment for 1 h, Rhodo-P1 1 μM
Method: HepG2 cells were maintained in DMEM medium containing 10% FBS and 1% antibiotics in the 15 μ-plate 96 well black (ibidi, Germany). HepG2 cells were incubated with or without 500 μM of bestatin, LAP inhibitor, for 1 h and subsequently treated with 1 μM of probe and Lyso-Tracker™ Red (Thermo Scientific, USA) for 1 h. The treated cells were washed three times with PBS and treated with 10 μM of DAPI (Thermo Scientific, USA) for 2 h. Imaged were collected by Leica confocal microscopy (TCS SP5 AOBS/Tandem, Leica, Germany). Lyso-Tracker™ Red was excited by 514 nm and detected by 570-620 nm, compounds were excited by 476 nm and detected by 505-545 nm, DAPI was excited by 405 nm and detected by 420-470 nm.

[2] = test system: Leucine aminopeptidase (LAP); assay: Competitive assay with LAP inhibitor bestatin; format: biochemical, porcine; settings: bestatin pretreatment 0, 1, 10, 50, 100 μM; LAP 10 μg/mL; PBS pH 7.4, 37° C.
HepG2 cells [3] = assay: Kinetic and competitive study in HepG2 cells; format: cell-based; settings: bestatin pretreatment 0, 10, 100 μM; Rhodo-P2 2.0 μM
Method: HepG2 cells (3×10^4 cells/well) were seeded in black-walled, transparent bottomed 96-well plates and cultured overnight. […] Kinetic study was performed in Synergy™ H1 microplate reader.

[4] = pH-dependent stability test; format: physicochemical; settings: 1 μM probe, pH 2 to 12, 25° C.
Method: Thermal stability was evaluated by the incubation of 1 μM of the probe in PBS buffer (pH 7.4) at different temperatures ranging from 25 to 45° C. for 20 min and reading fluorescence at each temperature. The pH stability test was performed by the incubation with 1 μM probe in different pH buffers (2 to 13) at 25° C. and recording fluorescence at each pH.

[5] = biological target: T1, Leucine aminopeptidase (LAP) (Sus scrofa, UniProt P15145); assay: Selectivity test against various bioanalytes; format: biochemical, porcine; settings: 1 μM probe, 1 mM analytes or 1 U/mL enzymes, 0.05 U/mL LAP, PBS pH 7.4, 37° C., 1 h
T1 construct: purchased Sigma-Aldrich; host or cells: porcine kidney (tissue-derived enzyme)
T1 sequence (P15145 33-963 limits assumed): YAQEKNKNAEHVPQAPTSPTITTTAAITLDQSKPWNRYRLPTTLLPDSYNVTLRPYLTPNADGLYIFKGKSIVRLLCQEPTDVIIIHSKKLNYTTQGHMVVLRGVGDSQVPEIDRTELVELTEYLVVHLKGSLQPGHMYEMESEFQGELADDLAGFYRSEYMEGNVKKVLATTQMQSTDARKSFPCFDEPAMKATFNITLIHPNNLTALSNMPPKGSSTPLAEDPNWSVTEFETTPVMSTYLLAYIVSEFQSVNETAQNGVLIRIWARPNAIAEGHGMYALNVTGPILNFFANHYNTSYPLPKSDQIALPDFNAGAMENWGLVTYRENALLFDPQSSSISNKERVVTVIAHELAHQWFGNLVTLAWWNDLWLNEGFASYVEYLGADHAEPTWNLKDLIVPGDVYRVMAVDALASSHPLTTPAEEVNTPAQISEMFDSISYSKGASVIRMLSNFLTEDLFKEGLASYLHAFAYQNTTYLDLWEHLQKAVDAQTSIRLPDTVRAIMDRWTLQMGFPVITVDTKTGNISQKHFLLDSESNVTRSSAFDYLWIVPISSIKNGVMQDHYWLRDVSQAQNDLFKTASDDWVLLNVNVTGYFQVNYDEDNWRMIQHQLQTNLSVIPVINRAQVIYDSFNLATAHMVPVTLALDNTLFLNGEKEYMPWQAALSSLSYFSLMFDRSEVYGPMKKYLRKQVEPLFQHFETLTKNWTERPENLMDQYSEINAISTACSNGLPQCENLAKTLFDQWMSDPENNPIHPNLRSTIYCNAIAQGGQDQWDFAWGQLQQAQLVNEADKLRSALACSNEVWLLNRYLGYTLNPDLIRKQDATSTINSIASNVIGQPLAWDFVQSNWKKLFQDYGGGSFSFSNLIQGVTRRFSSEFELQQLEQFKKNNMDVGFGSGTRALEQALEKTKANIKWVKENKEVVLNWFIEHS
Method: 1 μM of probe was incubated with various bioanalytes containing 1 mM of NaOCl, H2O2, CaCl2), ZnCl2, KCl, NaCl, GSH, vitamin C, L-cystein, L-arginine, L-alanine and 1 U/mL of α-amylase, lysozyme, cellulase under 0.05 U/mL of LAP in PBS (10 mM, pH 7.4) at 37° C. for 1 h. The fluorescence was recorded on Synergy™ H1 microplate reader.

[6] = test system: Leucine aminopeptidase (LAP); assay: Enzymatic kinetic study of LAP reaction of activatable fluorescent probes; format: biochemical, porcine
Method: All spectroscopic readings were measured with BioTek Synergy™ H1 spectrophotometer, using 96 well microplate. A parent stock solution of probes was dissolved in DMSO to obtain 10 mM. Leucine aminopeptidase was dissolved in deionized water to obtain 1 mg/mL. All spectra measurements were carried out in PBS buffer solution (PBS buffer, 10 mM, pH 7.4, 37° C. The final volume in 96 well microplate was adjusted to 200 μL. RPMI 1640 was obtained from Thermo Scientific (Waltham, MA, USA). Bestatin hydrochloride (LAP inhibitor), DMSO and 2-mercaptoethanol were purchased from Sigma Aldrich (St. Louis, Mo, USA).
The kinetic study for LAP reaction was performed by incubation of 2 μg of LAP ([…]) with 1 μM probe in PBS buffer (10 mM, pH 7.4). The plate was incubated at 37° C. for 80 min with continuous shaking, and the emission spectra were recorded at the corresponding wavelength over time. A solution of LAP (2 μg/200 μL) was pretreated with bestatin (0, 1, 10, 50 and 100 μM) in PBS (10 mM, pH 7.4) at 37° C. for 30 min, and then 1 μM of probe was added. The mixture was incubated at 37° C., and the fluorescence was recorded on Synergy™ H1 using a 96-well microplate.
All reagents and solvents were obtained from commercial sources Sigma-Aldrich Chemical Co., Combi-Block, Tokyo Chemical Industries, Daejung Chemicals, and Alfa Aesar and used without purification. Anhydrous solvents were purchased from Sigma-Aldrich and used under dry nitrogen atmosphere. Ultrapure water was obtained from a water ultra-purification system. Completion of reaction was confirmed by thin layer chromatography (TLC) on Kiesegel 60F254 from Merck and all synthesized compounds were purified by flash column chromatography using ZEOprep 60 (40-63) […] silica gel from ZEOCHEM. ^1H and ^13C NMR spectra were measured on JEOL JNMECZ400s/L1 (400 MHZ) and CDCl3 or DMSO-d6 was used as the NMR solvents. The chemical shifts were quoted in parts per million (ppm) and the coupling constant (J) were reported in hertz unit (Hz). Chemical shifts (in ppm) were referenced to tetramethylsilane (δ=0 ppm) in CDCl3 as an internal standard. ^13C NMR spectra were reported in ppm referenced to the center line of the triplet at 77.0 ppm for CDCl3 or 39.5 ppm for DMSO-d6. All in vitro enzyme assays were performed by taking the absorbance and emission on Synergy™ H1 microplate reader from BioTek. Leucine aminopeptidase from porcine kidney and other enzymes were purchased from Sigma-Aldrich.

[7] = Ex vivo plasma stability in mice serum; format: in vitro ADME, C57BL/6 mice; settings: 10 μM probe, 48 h
Method: Animal was treated strictly according to the guidelines for laboratory animal care and use issued by the Sunchon National University Institutional Animal Care and Use Committee (SCNU IACUC). Female C57/BL6 mice (7 weeks old), weighing about 17-20 g, were purchased from Orientbio (Orientbio Inc., Seongnam, Korea). Blood was collected from the posterior orbital plexus in normal mice and centrifuged (5000 rpm, 4° C., 5 minutes) to obtain serum. The stability study was performed by incubation of the fluorescent probe (10 μM) or rhodol fluorophore (0.1, 0.3, 1, 3 and 10 μM) with serum at 37° C. . . . The fluorescence was detected on Synergy™ H1 microplate reader.

[8] = test system: Leucine aminopeptidase (LAP); assay: Enzymatic kinetic study of LAP reaction of activatable fluorescent probes; format: biochemical, porcine; settings: 1 μM probe; LAP 1, 5, 10, 20, 50, 100 μg/mL; PBS pH 7.4, 80 min, 37° C.

What does the source list for `CC(C)C[C@H](NC(=O)[C@@H](O)[C@H](N)Cc1ccccc1)C(=O)O` [bestatin]?
effect of bestatin on probe fluorescence in confocal live cell imaging (HepG2 cells [1]): only showed blue staining by DAPI without green fluorescence from the LAP probe; inhibition of LAP reaction of Rhodo-P2 (fluorescence emission) [2]: reduced fluorescence emission by released fluorophores in a concentration-dependent manner; inhibition of Rhodo-P2 response in HepG2 cells (HepG2 cells [3]): concentration-dependent inhibition of Rhodo-P2

With `COc1ccc2c(c1)Oc1cc(NC(=O)OCc3ccc(NC(=O)[C@@H](N)CC(C)C)cc3)ccc1C21OC(=O)c2ccccc21` (stereo partly drawn) [Probe 4, 4-((S)-2-Amino-4-methylpentanamido)benzyl methoxy-3-oxo-3H-spiro[isobenzofuran-1,9′-xanthen]-6′-(3′-yl)carbamate] as the molecule, how does the “pH-dependent stability (fluorescence of fluorophore released by degradation)” value [4] read?
The value was “no change in fluorescence emission according to the change in pH”.

And the “selectivity for LAP over other bioanalytes (fluorescence response)” value [5]?
Its value is “most biocompatible in selectivity tests as well as pH and thermal stability tests”.

What about the “Fluorophore released in LAP reaction (% yield)” value ([6]; 1 μM probe, 10 μg/mL LAP, PBS pH 7.4, 37° C., 80 min) of the same molecule?
The value was 76.9%.

And the “Fluorophore released in LAP reaction (concentration)” value ([6]; 1 μM probe, 10 μg/mL LAP, PBS pH 7.4, 37° C., 80 min, calculated from fluorophore calibration curves)?
Its value is ~0.769 µM.

What about the “LAP response / fluorophore release (in words)” value ([6]; LAP reaction, enzymatic study) of the same molecule?
Its value is “high yields of LAP reactions”.

What about the “time-dependent fluorescence emission in serum” value ([7]; C57/BL6 mice serum) of the same molecule?
The value was “fluorescence emission with a gentle increasing slope”.

What about the “% survival rate of probe in serum” value ([7]; C57BL/6 mice serum, 37° C.) of the same molecule?
The value was 48%.

And the “LAP response at various concentrations of LAP” value [8]?
The value was “nearly maximal responses at 10 μg/mL of LAP”.
